Patent publication US11365187B2, “Pesticidally active pyrazole derivatives” (SYNGENTA PARTICIPATIONS AG, priority 2017, dated 2022)
Like-named read-outs stand apart in the source and are kept apart here.

Columns and labels:
Format in all cases: in vivo
[1] = test system: Myzus persicae (Green peach aphid); experiment: Myzus persicae feeding/contact activity on sunflower leaf discs; conditions: foliar, 144 h
Protocol: Myzus persicae (Green peach aphid): Feeding/Contact activity
Sunflower leaf discs were placed onto agar in a 24-well microtiter plate and sprayed with aqueous test solutions prepared from 10′000 ppm DMSO stock solutions. After drying, the leaf discs were infested with an aphid population of mixed ages. The samples were assessed for mortality 6 days after infestation.

[2] = test system: Tetranychus urticae (Two-spotted spider mite); experiment: Tetranychus urticae feeding/contact activity on bean leaf discs; conditions: foliar, 192 h, read-out: mortality on mixed population (mobile stages)
Protocol: Tetranychus urticae (Two-spotted spider mite): Feeding/contact activity
Bean leaf discs on agar in 24-well microtiter plates were sprayed with aqueous test solutions prepared from 10′000 ppm DMSO stock solutions. After drying the leaf discs were infested with a mite population of mixed ages. The samples were assessed for mortality on mixed population (mobile stages) 8 days after infestation.

[3] = test system: Spodoptera littoralis (Egyptian cotton leaf worm); experiment: Spodoptera littoralis feeding/contact activity on cotton leaf discs; conditions: foliar, 72 h
Protocol: Spodoptera littoralis (Egyptian cotton leaf worm): Feeding/contact activity
Cotton leaf discs were placed onto agar in 24-well microtiter plates and sprayed with aqueous test solutions prepared from 10′000 ppm DMSO stock solutions. After drying the leaf discs were infested with five L1 larvae. The samples were assessed for mortality 3 days after infestation. […] 2, 3, 4, 5, 6, 7, 8, 9, 10, 11, 12, 13, 14, 15, 16, 17, 18, 19, 20, 21, 22, 23, 24, 25, 26, 27, 28 and 29.

[4] = test system: Plutella xylostella (Diamond back moth); experiment: Plutella xylostella feeding/contact activity on artificial diet; conditions: 120 h
Protocol: Plutella xylostella (Diamond back moth): Feeding/contact activity
24-well microtiter plates with artificial diet were treated with aqueous test solutions prepared from 10′000 ppm DMSO stock solutions by pipetting. After drying, the plates were infested with L2 larvae (10 to 15 per well). The samples were assessed for mortality 5 days after infestation.

[5] = test system: Diabrotica balteata (Corn root worm); experiment: Diabrotica balteata (Corn root worm) mortality on sprayed maize sprouts; conditions: 96 h, application rate 200 ppm, L2 larvae, assessed 4 days after infestation, read-out: mortality
Protocol: Diabrotica balteata (Corn root worm):
Maize sprouts placed onto an agar layer in 24-well microtiter plates were treated with aqueous test solutions prepared from 10′000 ppm DMSO stock solutions by spraying. After drying, the plates were infested with L2 larvae (6 to 10 per well). The samples were assessed for mortality 4 days after infestation.

[6] = test system: Euschistus heros (Neotropical Brown Stink Bug); experiment: Euschistus heros feeding/contact activity on soybean leaves; conditions: 120 h
Protocol: Euschistus heros (Neotropical Brown Stink Bug): Feeding/contact activity
Soybean leaves on agar in 24-well microtiter plates were sprayed with aqueous test solutions prepared from 10′000 ppm DMSO stock solutions. After drying the leaves were infested with N2 nymphs. The samples were assessed for mortality 5 days after infestation.

[7] = test system: Thrips tabaci (Onion thrips); experiment: Thrips tabaci feeding/contact activity on sunflower leaf discs; conditions: foliar, 144 h, application rate 200 ppm, thrips population of mixed ages, assessed 6 days after infestation, read-out: mortality
Protocol: Thrips tabaci (Onion thrips): Feeding/Contact activity
Sunflower leaf discs were placed on agar in 24-well microtiter plates and sprayed with aqueous test solutions prepared from 10′000 ppm DMSO stock solutions. After drying the leaf discs were infested with a thrips population of mixed ages. The samples were assessed for mortality 6 days after infestation.

[8] = application rate 200 ppm, aphid population of mixed ages, assessed 6 days after infestation, read-out: mortality
[9] = application rate 200 ppm, mite population of mixed ages, assessed 8 days after infestation
[10] = application rate 200 ppm, L1 larvae, assessed 3 days after infestation, read-out: mortality
[11] = application rate 200 ppm, L2 larvae, assessed 5 days after infestation, read-out: mortality
[12] = application rate 200 ppm, N2 nymphs, assessed 5 days after infestation, read-out: mortality

Measured: mortality at 200 ppm

CCN(C(=O)c1cc(-c2cnn(-c3c(OC(F)F)c(C(F)(C(F)(F)F)C(F)(F)F)nn3C)c2)ccc1Cl)C1(C#N)CC1 [Example 3, 2-chloro-N-(1-cyanocyclopropyl)-5-[1-[4-(difluoromethoxy)-2-methyl-5-[1,2,2,2-tetrafluoro-1-(trifluoromethyl)ethyl]pyrazol-3-yl]pyrazol-4-yl]-N-ethyl-benzamide]
≥ 80%: [1]; [8] | [2]; [9] | [3]; [10] | [4]; [11] | [5] | [6]; [12] | [7]

CN(C(=O)c1cc(-c2cnn(-c3c(OC(F)F)c(C(F)(C(F)(F)F)C(F)(F)F)nn3C)c2)ccc1Cl)C1(C#N)CC1 [Example 4, 2-chloro-N-(1-cyanocyclopropyl)-5-[1-[4-(difluoromethoxy)-2-methyl-5-[1,2,2,2-tetrafluoro-1-(trifluoromethyl)ethyl]pyrazol-3-yl]pyrazol-4-yl]-N-methyl-benzamide]
≥ 80%: [1]; [8] | [2]; [9] | [3]; [10] | [4]; [11] | [5] | [6]; [12] | [7]

Cn1nc(C(F)(C(F)(F)F)C(F)(F)F)c(OC(F)F)c1-n1cc(-c2ccc(Cl)c(C(=O)NC3(C#N)CC3)c2)cn1 [Example 1, 2-Chloro-N-(1-cyanocyclopropyl)-5-[1-[4-(difluoromethoxy)-2-methyl-5-[1,2,2,2-tetrafluoro-1-(trifluoromethyl)ethyl]pyrazol-3-yl]pyrazol-4-yl]benzamide]
≥ 80%: [1]; [8] | [2]; [9] | [3]; [10] | [4]; [11] | [5] | [6]; [12] | [7]

CCOCN(C(=O)c1cc(-c2cnn(-c3c(OC(F)F)c(C(F)(C(F)(F)F)C(F)(F)F)nn3C)c2)ccc1Cl)C1(C#N)CC1 [Example 10, 2-chloro-N-(1-cyanocyclopropyl)-5-[1-[4-(difluoromethoxy)-2-methyl-5-[1,2,2,2-tetrafluoro-1-(trifluoromethyl)ethyl]pyrazol-3-yl]pyrazol-4-yl]-N-(ethoxymethyl)benzamide]
≥ 80%: [1]; [8] | [2]; [9] | [3]; [10] | [4]; [11] | [6]; [12]

COCN(C(=O)c1cc(-c2cnn(-c3c(OC(F)F)c(C(F)(C(F)(F)F)C(F)(F)F)nn3C)c2)ccc1Cl)C1(C#N)CC1 [Example 9, 2-chloro-N-(1-cyanocyclopropyl)-5-[1-[4-(difluoromethoxy)-2-methyl-5-[1,2,2,2-tetrafluoro-1-(trifluoromethyl)ethyl]pyrazol-3-yl]pyrazol-4-yl]-N-(methoxymethyl)benzamide]
≥ 80%: [1]; [8] | [2]; [9] | [3]; [10] | [4]; [11] | [6]; [12]

Cn1nc(C(F)(C(F)(F)F)C(F)(F)F)c(OC(F)F)c1-n1cc(-c2ccc(Cl)c(C(=O)N(CC#N)C3(C#N)CC3)c2)cn1 [Example 11, 2-chloro-N-(1-cyanocyclopropyl)-N-(cyanomethyl)-5-[1-[4-(difluoromethoxy)-2-methyl-5-[1,2,2,2-tetrafluoro-1-(trifluoromethyl)ethyl]pyrazol-3-yl]pyrazol-4-yl]benzamide]
≥ 80%: [1]; [8] | [2]; [9] | [3]; [10] | [4]; [11] | [6]; [12]

Cn1nc(C(F)(C(F)(F)F)C(F)(F)F)c(OC(F)F)c1-n1cc(-c2ccc(Cl)c(C(=O)NC3CC3)c2)cn1 [Example 17, 2-chloro-N-cyclopropyl-5-[1-[4-(difluoromethoxy)-2-methyl-5-[1,2,2,2-tetrafluoro-1-(trifluoromethyl)ethyl]pyrazol-3-yl]pyrazol-4-yl]benzamide]
≥ 80%: [1]; [8] | [2]; [9] | [3]; [10] | [4]; [11] | [6]; [12]

CCOCN(C(=O)c1cc(-c2cnn(-c3c(OC(F)F)c(C(F)(C(F)(F)F)C(F)(F)F)nn3C)c2)ccc1Cl)C1CC1 [Example 27, 2-chloro-N-cyclopropyl-5-[1-[4-(difluoromethoxy)-2-methyl-5-[1,2,2,2-tetrafluoro-1-(trifluoromethyl)ethyl]pyrazol-3-yl]pyrazol-4-yl]-N-(ethoxymethyl)benzamide]
≥ 80%: [1]; [8] | [2]; [9] | [3]; [10] | [4]; [11] | [6]; [12]

COCCCN(C(=O)c1cc(-c2cnn(-c3c(OC(F)F)c(C(F)(C(F)(F)F)C(F)(F)F)nn3C)c2)ccc1Cl)C1(C#N)CC1 [Example 6, 2-chloro-N-(1-cyanocyclopropyl)-5-[1-[4-(difluoromethoxy)-2-methyl-5-[1,2,2,2-tetrafluoro-1-(trifluoromethyl)ethyl]pyrazol-3-yl]pyrazol-4-yl]-N-(3-methoxypropyl)benzamide]
≥ 80%: [1]; [8] | [2]; [9] | [3]; [10] | [4]; [11] | [6]; [12]

Cn1nc(C(F)(C(F)(F)F)C(F)(F)F)c(OC(F)F)c1-n1cc(-c2ccc(Cl)c(C(=O)N(C(=O)OCCl)C3(C#N)CC3)c2)cn1 [Example 29, chloromethyl N-[2-chloro-5-[1-[4-(difluoromethoxy)-2-methyl-5-[1,2,2,2-tetrafluoro-1-(trifluoromethyl)ethyl]pyrazol-3-yl]pyrazol-4-yl]benzoyl]-N-(1-cyanocyclopropyl)carbamate]
≥ 80%: [1] | [2] | [3] | [4] | [6]

CCOC(=O)N(C(=O)c1cc(-c2cnn(-c3c(OC(F)F)c(C(F)(C(F)(F)F)C(F)(F)F)nn3C)c2)ccc1Cl)C1(C#N)CC1 [Example 8, ethyl N-[2-chloro-5-[1-[4-(difluoromethoxy)-2-methyl-5-[1,2,2,2-tetrafluoro-1-(trifluoromethyl)ethyl]pyrazol-3-yl]pyrazol-4-yl]benzoyl]-N-(1-cyanocyclopropyl)carbamate]
≥ 80%: [1] | [2] | [3] | [4] | [6]

CN(C(=O)c1cc(-c2cnn(-c3c(OC(F)F)c(C(F)(C(F)(F)F)C(F)(F)F)nn3C)c2)ccc1Cl)C1CC1 [Example 25, 2-chloro-N-cyclopropyl-5-[1-[4-(difluoromethoxy)-2-methyl-5-[1,2,2,2-tetrafluoro-1-(trifluoromethyl)ethyl]pyrazol-3-yl]pyrazol-4-yl]-N-methyl-benzamide]
≥ 80%: [1]; [8] | [2]; [9] | [3]; [10] | [4]; [11] | [6]; [12]
